Source: US12679903B2, “Antibody for specifically binding to lysyl-tRNA synthetase N-terminal domain exposed to extracellular membrane” (Zymedi Co., Ltd., priority 2018, dated 2026)

Columns and labels:
Type in all cases: in vivo, SD rats
[1] = test system: pulmonary arterial hypertension (PAH) models; assay: PAH model, blood flow and blood pressure measurement; details: MCT + Sildenafil 25 mpk, orally every day, 3 weeks
Description: (§1) To induce PAH in 7-week-old SD rats (Oriental Bio), 60 mpk of MCT (monocrotaline) were subcutaneously injected. Thereafter, the rats were divided into four groups (tested with five animals in each group), and were administrated with 1mpk of Mock human IgG (Thermo Fisher Scientific, negative control), 1mpk of N3 IgG antibody, 10mpk of N3 IgG antibody, and 25 mpk of sildenafil (positive control) for 3 weeks. All antibodies were i.v. injected twice a week and sildenafil was orally administered every day.
After three weeks, the rats were anesthetized with isoflurane, and blood flow and pressure were measured using an MPVS Cardiovascular Pressure and Volume system (model name: MPVS Ultra, manufacturer: Millar Instruments). The right ventricular end-systolic pressure (RVESP), right ventricular end-diastolic pressure, left ventricular end-systolic pressure, left ventricular end-diastolic pressure were measured using an exclusive catheter (Mikro-Tip rat pressure catheter, manufacturer: Millar Instruments). The cardiac output was measured using a perivascular blood flow probe (Transonic Flow probes, manufacturer: […]), and experimental method thereof was performed by the same method as disclosed in the following literature: Pacher P, Nagayama T, Mukhopadhyay P, Batkai S, Kass DA. Measurement of cardiac function using pressure-volume conductance catheter technique in mice and rats. Nat Protoc 2008; 3 (9): 1422-34.

[2] = test system: pulmonary arterial hypertension (PAH) models; assay: PAH model, echocardiography; details: MCT PAH rats
Description: as §1

[3] = PAH model, body weight and abnormal signs; details: MCT + Sildenafil
Description: as §1

With CCCc1nn(C)c2c(=O)[nH]c(-c3cc(S(=O)(=O)N4CCN(C)CC4)ccc3OCC)nc12 [Sildenafil, sildenafil] the CO [1] was 49.6 ± 17.7 mL/min, the LVEDP [1] was 3.6 ± 2.3 mmHg and the LVESP [1] was 83.2 ± 4.7 mmHg. The RVEDP [1] was 2.6 ± 1.3 mmHg, the RVESP [1] was 48.4 ± 9.6 mmHg and the “D-shaped left ventricle indicating pressure overload in the right ventricle” value [2] was “three animals”. For the same compound, the “body weight, Absolute change” value [3] was 104.1 ± 26.4 g and the “body weight, Relative change” value [3] was 49.8 ± 10.5%.
